# Measured values published in ChEMBL document CHEMBL1201862, “PubChem BioAssay data set” (2004).
#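 Results reflect a 48-hour exposure of cells in 96-well plates to compound at five concentrations. GI50: concentration for 50% inhibition of growth.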 Activity calls are given as the source filed them. No stated cut-off is given here; in the data, active = GI50 up to about 1.1 µM and inactive = higher.
# Columns and labels:
# Assay in all cases: DTP human tumour cell line panel, 48 h
# DLD-1 = tested on: DLD-1
# DMS-114 = tested on: DMS-114
# KM-20L2 = tested on: KM-20L2
# LXFL 529 = tested on: LXFL 529
# M19-MEL = tested on: M19-MEL
# RXF 631 = tested on: RXF 631
# SNB-78 = tested on: SNB-78
# XF498 = tested on: XF498
# HOP-18 = tested on: HOP-18
SMILES,GI50 (DLD-1),GI50 (DMS-114),GI50 (KM-20L2),GI50 (LXFL 529),GI50 (M19-MEL),GI50 (RXF 631),GI50 (SNB-78),GI50 (XF498),GI50 (HOP-18)
CC1CCC(C(C)C)C(O[C@@H]2OC(=O)C[C@@H]2Sc2ccccc2)C1 (some centres not stated),33.1 µM (inactive),19.5 µM (inactive),> 10 µM (inactive),19.1 µM (inactive),24 µM (inactive),21.2 µM (inactive),25.3 µM (inactive),–,–
CCOC(=O)CNc1nnnn1C1OC(CO)C(O)C1O (configuration not stated),> 100 µM (inactive),> 100 µM (inactive),> 100 µM (inactive),> 100 µM (inactive),> 100 µM (inactive),–,> 100 µM (inactive),> 100 µM (inactive),–
N#Cc1cnsc1,> 100 µM (inactive),> 100 µM (inactive),> 100 µM (inactive),> 100 µM (inactive),> 100 µM (inactive),> 100 µM (inactive),> 100 µM (inactive),> 100 µM (inactive),> 100 µM (inactive)
CCCCCCCCCCNC1CC(OC2CC(O)(C(O)CO)Cc3c(O)c4c(c(O)c32)C(=O)c2c(OC)cccc2C4=O)OC(C)C1O (configuration not stated),1.13 µM (inactive),1.46 µM (inactive),1.69 µM (inactive),0.731 µM (active),1.65 µM (inactive),1.53 µM (inactive),1.84 µM (inactive),1.91 µM (inactive),1.87 µM (inactive)
CC(C)CC/N=c1/cc2n(-c3ccc(Cl)cc3)c3ccccc3nc-2cc1Nc1ccc(Cl)cc1,1.97 µM (inactive),1.94 µM (inactive),1.34 µM (inactive),–,6.89 µM (inactive),–,15.5 µM (inactive),6.64 µM (inactive),7.05 µM (inactive)
COC(=O)C(C(=O)C(=O)Nc1c(Cl)cc([N+](=O)[O-])cc1Cl)c1csc(-n2nc(C3=CCCCC3)cc2-c2ccccc2)n1 (configuration not stated),28.8 µM (inactive),–,29 µM (inactive),40.7 µM (inactive),52.7 µM (inactive),45.6 µM (inactive),40 µM (inactive),–,10.3 µM (inactive)
COC(=O)C1CCC2(CC1)NC(=O)NC2=O (configuration not stated),> 100 µM (inactive),> 100 µM (inactive),> 100 µM (inactive),> 100 µM (inactive),> 100 µM (inactive),> 100 µM (inactive),> 100 µM (inactive),> 100 µM (inactive),> 100 µM (inactive)
N#CNC(=N)NC(=O)/C=C/C=C/c1ccc(Cl)cc1,> 100 µM (inactive),84.5 µM (inactive),> 100 µM (inactive),47.4 µM (inactive),> 100 µM (inactive),–,55.1 µM (inactive),–,> 100 µM (inactive)
OCC1=CC(NC2CC(CO)C(O)C(O)C2O)C(O)C(O)C1O (configuration not stated),> 100 µM (inactive),> 100 µM (inactive),–,–,> 100 µM (inactive),–,–,64.9 µM (inactive),> 100 µM (inactive)
COc1c2ccoc2c(S(=O)(=O)Nc2ccc(Cl)cc2)c2oc(C)cc(=O)c12,> 100 µM (inactive),> 68.2 µM (inactive),> 100 µM (inactive),–,> 100 µM (inactive),–,> 100 µM (inactive),> 85.1 µM (inactive),> 54.8 µM (inactive)
CCCCCCCCCCCCCCC(O)C1CCC(C(O)CCC(O)CCCCCC(O)CC2=CC(C)OC2=O)O1 (configuration not stated),2.31 µM (inactive),< 0.01 µM (active),3.4 µM (inactive),2.11 µM (inactive),2 µM (inactive),2.94 µM (inactive),1.49 µM (inactive),1.12 µM (active),–
O=C1CCC(c2nc3cc(Cl)ccc3o2)C(=O)N1 (configuration not stated),> 100 µM (inactive),> 100 µM (inactive),> 100 µM (inactive),> 100 µM (inactive),> 100 µM (inactive),> 100 µM (inactive),> 100 µM (inactive),–,> 100 µM (inactive)
O=C(C/C(CCC(=O)N(Cc1ccccc1)Cc1ccccc1)=N/Nc1ccc([N+](=O)[O-])cc1[N+](=O)[O-])c1ccccc1,49.9 µM (inactive),> 100 µM (inactive),33.3 µM (inactive),25 µM (inactive),68.4 µM (inactive),–,> 100 µM (inactive),> 100 µM (inactive),> 100 µM (inactive)
COc1cccc(NC(=O)C(=O)C(C(=O)c2ccccc2F)C2OC(=O)c3ccccc32)c1 (configuration not stated),36.6 µM (inactive),–,33.3 µM (inactive),33.6 µM (inactive),22.9 µM (inactive),–,15.5 µM (inactive),–,–
C[C@]12CCC(=O)C=C1CC[C@@H]1[C@@H]2[C@@H](O)C[C@@]2(C)[C@H]1CC[C@]2(O)C(=O)COC(=O)COCC(=O)O,> 100 µM (inactive),> 100 µM (inactive),> 100 µM (inactive),–,> 100 µM (inactive),–,20.9 µM (inactive),> 100 µM (inactive),> 100 µM (inactive)
Sc1nnc(COc2ccc(Cl)cc2)o1,> 100 µM (inactive),> 100 µM (inactive),> 100 µM (inactive),> 100 µM (inactive),> 100 µM (inactive),> 100 µM (inactive),> 100 µM (inactive),–,> 100 µM (inactive)
O=C(O)CCCCCCC[C@@H]1S[C@H]1CCCCCCO,> 100 µM (inactive),> 100 µM (inactive),> 100 µM (inactive),–,> 100 µM (inactive),–,> 100 µM (inactive),> 100 µM (inactive),> 100 µM (inactive)
CC1(C)OCC(C(O)C2OC(C)(C)OC2/C=N\O)O1 (configuration not stated),> 100 µM (inactive),> 100 µM (inactive),> 100 µM (inactive),> 100 µM (inactive),> 100 µM (inactive),–,> 100 µM (inactive),> 100 µM (inactive),37.5 µM (inactive)
COc1ccc(-c2cc(-c3ccco3)c(C#N)c(=O)[nH]2)cc1,> 100 µM (inactive),79.6 µM (inactive),> 100 µM (inactive),44 µM (inactive),87.9 µM (inactive),> 100 µM (inactive),> 100 µM (inactive),–,15.9 µM (inactive)
O=C(O/N=C1\CCCC\C1=C/c1ccccc1)c1ccc([N+](=O)[O-])cc1,80 µM (inactive),61.9 µM (inactive),> 100 µM (inactive),54 µM (inactive),> 100 µM (inactive),> 100 µM (inactive),> 100 µM (inactive),–,> 100 µM (inactive)
CCC(C)(C)NC1=C(NC(C)=O)C(=O)c2ccccc2C1=O,43.1 µM (inactive),–,> 75 µM (inactive),45.6 µM (inactive),13.3 µM (inactive),–,35.2 µM (inactive),14.4 µM (inactive),–
COC(=O)/C=C\C1C(C(=O)OC)C2(C(=O)OC)CCC1(C(=O)OC)N2 (configuration not stated),3.25 µM (inactive),–,31.9 µM (inactive),6.75 µM (inactive),14.7 µM (inactive),20.8 µM (inactive),10.2 µM (inactive),19.1 µM (inactive),15.1 µM (inactive)
CC(C)(C)N/N=C(\Cc1occc(=O)c1O)C(=O)Nc1ccc([N+](=O)[O-])cc1[N+](=O)[O-],–,> 100 µM (inactive),> 100 µM (inactive),> 100 µM (inactive),> 100 µM (inactive),> 100 µM (inactive),> 100 µM (inactive),> 100 µM (inactive),> 100 µM (inactive)
CN(C)CCNc1ccc2nnn3c4ccc(O)cc4c(=O)c1c23,3.4 µM (inactive),5.79 µM (inactive),7.82 µM (inactive),3.01 µM (inactive),–,–,12.7 µM (inactive),–,21.3 µM (inactive)
Cn1c(=O)nc2n(-c3ccc(O)cc3)c3ccccc3nc-2c1=O,> 100 µM (inactive),22.5 µM (inactive),64.3 µM (inactive),> 100 µM (inactive),20 µM (inactive),63.5 µM (inactive),> 100 µM (inactive),60 µM (inactive),> 100 µM (inactive)
COc1cc(-c2cc(O)c3ccccc3n2)cc(OC)c1OC,> 75 µM (inactive),> 75 µM (inactive),> 75 µM (inactive),> 75 µM (inactive),> 75 µM (inactive),–,> 75 µM (inactive),–,–
